Experimental data taken from the supplement of paper PMC4858399.
Counter-ions that a name gives are not always drawn.

Assays:
Conditions in all cases: exposure time 48 h
[1] = tested on: Caenorhabditis elegans N2; assay: mean nematode size ln(EXT) after 48 h, plate-adjusted (DMSO control set to 6) (ln(EXT), control-adjusted); higher = larger nematodes / less growth inhibition
Procedure, shortened: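 Worms were measured individually for extinction on the Biosort after 48 h at 20°C. They began as synchronised C. elegans N2 L1 larvae in K-medium with killed OP50, 1% DMSO and 0.5–200 µM chemical. Once debris had been removed by a growth model, values were natural-logged and averaged per well to give mean size. The plate adjustment subtracted the vehicle control mean and added 6.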

[2] = tested on: Caenorhabditis elegans N2; assay: lowest effective concentration for larval growth inhibition (size below effect threshold); higher = less potent
Procedure, shortened: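 L1 larvae of C. elegans N2 (50 per 96-well) were grown in K-medium with killed bacteria and 1% DMSO, with the chemical at 0.5, 1, 5, 10, 50, 100 or 200 µM, for 48 h at 20°C. Per-worm extinction from the Biosort stood for size and was log-transformed into well means. For each chemical, the lowest effective concentration is the first dose where plate-adjusted mean size falls under the threshold and stays under it at the higher doses, using a threshold of 5.665.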

[3] = tested on: Caenorhabditis elegans N2; assay: AC50 for larval growth inhibition (Hill fit); higher = less potent
Procedure, shortened: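 After 48 h at 20°C in K-medium with killed OP50, 1% DMSO and 0.5–200 µM chemical, synchronised C. elegans N2 L1 larvae (50 per well, 96-well plates) were sized individually as extinction on a COPAS Biosort. These values were log-transformed and averaged per well, and wells with fewer than 10 worms were excluded. The AC50 was derived from a constrained Hill fit by weighted genetic-algorithm regression, and out-of-range values are censored.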

SMILES	mean nematode size ln(EXT) (ln) ([1]; 0.5 µM)	mean nematode size ln(EXT) (ln) ([1]; 1 µM)	mean nematode size ln(EXT) (ln) ([1]; 5 µM)	mean nematode size ln(EXT) (ln) ([1]; 10 µM)	mean nematode size ln(EXT) (ln) ([1]; 50 µM)	mean nematode size ln(EXT) (ln) ([1]; 100 µM)	mean nematode size ln(EXT) (ln) ([1]; 200 µM)	lowest effective concentration [2] [µM]	AC50 for larval growth inhibition [3] [µM]
C#CC(C)(C)NC(=O)c1cc(Cl)cc(Cl)c1 [Propyzamide]	5.98	5.91	5.98	6.01	5.92	5.91	5.63	200	> 200
COC(=O)N(OC)c1ccccc1COc1ccn(-c2ccc(Cl)cc2)n1 [Pyraclostrobin]	6	5.89	5.83	5.89	5.21	4.93	4.43	50	97.6
c1cc2ccc3cccc4ccc(c1)c2c34 [Pyrene]	5.71	5.58	4.64	4.52	4.28	4.05	3.59	1	4.29
CC(C)(C)c1ccc(CSc2cnn(C(C)(C)C)c(=O)c2Cl)cc1 [Pyridaben]	4.73	4.44	4.31	4.22	4.14	3.92	3.87	≤ 0.5	< 0.5
Cc1ncc(CO)c(CO)c1O [Pyridoxine]	5.84	5.88	5.86	5.83	5.87	5.92	5.63	200	> 200
CCc1nc(N)nc(N)c1-c1ccc(Cl)cc1 [Pyrimethamine]	5.86	5.91	6.02	5.67	5.66	5.43	4.91	50	> 200
Cc1cc(C)nc(Nc2ccccc2)n1 [Pyrimethanil]	6	5.86	5.84	5.84	5.68	6.12	5.4	200	184
CC(COc1ccc(Oc2ccccc2)cc1)Oc1ccccn1 (configuration not stated) [Pyriproxyfen]	5.55	5.44	5.14	4.87	4.84	4.7	4.81	≤ 0.5	1.37
Fc1ccc(Oc2ccnc3cc(Cl)cc(Cl)c23)cc1 [Quinoxyfen]	4.9	5.31	4.26	4.2	3.97	4	3.68	≤ 0.5	1.53
O=[N+]([O-])c1c(Cl)c(Cl)c(Cl)c(Cl)c1Cl [Quintozene]	5.85	5.74	5.72	5.88	5.93	5.94	5.11	200	194
CCOC(=O)C(C)Oc1ccc(Oc2cnc3cc(Cl)ccc3n2)cc1 (configuration not stated) [Quizalofop-ethyl]	5.77	5.9	5.82	5.91	5.33	4.78	4.4	50	84.1
COC(=O)[C@H]1[C@H]2C[C@@H]3c4[nH]c5cc(OC)ccc5c4CCN3C[C@H]2C[C@@H](OC(=O)c2cc(OC)c(OC)c(OC)c2)[C@@H]1OC [Reserpine]	5.86	5.87	5.74	5.66	5.04	4.95	5.17	10	12.6
CC(C)=CC1C(C(=O)OCc2coc(Cc3ccccc3)c2)C1(C)C (configuration not stated) [Resmethrin]	5.75	5.64	5.46	5.58	5.84	5.8	4.98	200	> 200
CC1=C(/C=C/C(C)=C/C=C/C(C)=C/C(=O)O)C(C)(C)CCC1 [Retinoic acid]	5.96	5.78	5.8	5.58	4.47	4.33	4.41	10	16.6
CO[C@H]1/C=C/O[C@@]2(C)Oc3c(C)c(O)c4c(O)c(c(/C=N/N5CCN(C)CC5)c(O)c4c3C2=O)NC(=O)/C(C)=C\C=C\[C@H](C)[C@H](O)[C@@H](C)[C@@H](O)[C@@H](C)[C@H](OC(C)=O)[C@@H]1C [Rifampicin]	5.96	5.92	5.94	5.98	5.84	5.84	5.56	200	> 200
C=C(C)[C@H]1Cc2c(ccc3c2O[C@@H]2COc4cc(OC)c(OC)cc4[C@@H]2C3=O)O1 [Rotenone]	5.16	6.51	6.12	6.26	6.39	6.45	4.07	200	181
C=CCC1=C(C)[C@@H](OC(=O)[C@@H]2[C@@H](C=C(C)C)C2(C)C)CC1=O [S-Bioallethrin]	5.65	5.78	5.76	5.76	5.48	5.62	5.39	50	> 200
C=CCc1ccc2c(c1)OCO2 [Safrole]	6.12	6.08	5.92	6.02	5.96	6.05	5.62	200	188
CCCCCCCCOC(=O)CCCCCCCCC(=O)OCCCCCCCC [Sebacic acid di-n-octyl ester]	5.75	5.77	5.82	6.22	5.69	5.67	5.58	200	39.2
CCC/C(=N\OCC)C1=C(O)CC(CC(C)SCC)CC1=O (configuration not stated) [Sethoxydim]	6.01	6.16	6.06	6	5.76	5.97	3.35	200	149
CCC(C)(C)C(=O)O[C@H]1C[C@@H](C)C=C2C=C[C@H](C)[C@H](CC[C@@H]3C[C@@H](O)CC(=O)O3)[C@H]21 [Simvastatin]	5.79	5.93	6	5.84	5.7	5.39	4.67	100	> 200

SMILES	mean nematode size ln(EXT) (ln) ([1]; 0.5 µM)	mean nematode size ln(EXT) (ln) ([1]; 1 µM)	mean nematode size ln(EXT) (ln) ([1]; 5 µM)	mean nematode size ln(EXT) (ln) ([1]; 10 µM)	mean nematode size ln(EXT) (ln) ([1]; 50 µM)	mean nematode size ln(EXT) (ln) ([1]; 100 µM)	mean nematode size ln(EXT) (ln) ([1]; 200 µM)	lowest effective concentration [2] [µM]	AC50 for larval growth inhibition [3] [µM]
On1ccccc1=S [Sodium (2-pyridylthio)-N-oxide]	5.88	5.86	5.84	5.87	5.74	5.74	5.51	200	> 200
[N-]=[N+]=[N-] [Sodium azide]	5.79	5.92	5.83	5.76	5.63	5.45	5.49	50	> 200
CCCCCCCCCCCCCCCCOS(=O)(=O)O [Sodium cetyl sulfate]	5.79	6.01	5.91	5.92	5.38	5	4.68	50	74.7
CCCCCCCCCCCCOS(=O)(=O)[O-].[Na+] [Sodium dodecyl sulfate]	5.87	5.81	5.75	5.47	4.99	4.66	4.69	10	24.5
CCCCCCCC/C=C\CCCCCCCC(=O)OC[C@@H](O)[C@H]1OC[C@H](O)[C@H]1O [Sorbitan, mono-(9Z)-9-octadecenoate]	5.92	5.88	5.92	5.89	5.89	5.83	5.34	200	> 200
CCC(C)(C)C(=O)OC1=C(c2ccc(Cl)cc2Cl)C(=O)OC12CCCCC2 [Spirodiclofen]	5.74	5.86	5.7	5.73	4.53	4.72	4.25	50	24
CCCN(CC)CC1COC2(CCC(C(C)(C)C)CC2)O1 (configuration not stated) [Spiroxamine]	5.61	5.84	5.9	6.1	5.84	6.17	3.97	200	184
C=C(C)C(=O)[O][Sn]([CH2]CCC)([CH2]CCC)[CH2]CCC [Stannane, tributyl(2-methyl-1-oxo-2-propenyl)oxy-]	4.73	4.66	3.93	3.57	3.8	3.85	3.56	≤ 0.5	0.511
Cc1nn(-c2cc(NS(C)(=O)=O)c(Cl)cc2Cl)c(=O)n1C(F)F [Sulfentrazone]	5.85	5.87	5.92	5.96	6.05	5.9	5.5	200	108
CCNS(=O)(=O)C(F)(F)C(F)(F)C(F)(F)C(F)(F)C(F)(F)C(F)(F)C(F)(F)C(F)(F)F [Sulfluramid]	5.81	5.84	5.48	5.23	4.32	4.08	3.24	5	31.4
CCc1c(C(=O)NN2CCCCC2)nn(-c2ccc(Cl)cc2Cl)c1-c1ccc(Br)cc1 [Surinabant]	5.77	5.74	5.6	5.44	5.2	5.06	4.77	5	> 200
N#CSCSc1nc2ccccc2s1 [TCMTB]	5.93	5.84	5.81	5.78	4.12	3.48	3.4	50	34
CC/C(=C(\c1ccccc1)c1ccc(OCCN(C)C)cc1)c1ccccc1 [Tamoxifen citrate salt]	5.96	6	5.82	5.01	3.9	3.68	–	10	10.9
CC/C(=C(\c1ccccc1)c1ccc(OCCN(C)C)cc1)c1ccccc1 [Tamoxifen]	5.79	5.76	5.65	5.67	3.84	3.93	3.53	50	20.8
O=C(OC[C@H]1O[C@@H](OC(=O)c2cc(O)c(O)c(OC(=O)c3cc(O)c(O)c(O)c3)c2)[C@H](OC(=O)c2cc(O)c(O)c(OC(=O)c3cc(O)c(O)c(O)c3)c2)[C@@H](OC(=O)c2cc(O)c(O)c(OC(=O)c3cc(O)c(O)c(O)c3)c2)[C@@H]1OC(=O)c1cc(O)c(O)c(OC(=O)c2cc(O)c(O)c(O)c2)c1)c1cc(O)c(O)c(OC(=O)c2cc(O)c(O)c(O)c2)c1 [Tannic acid]	5.95	5.98	5.96	5.92	5.86	5.68	5.34	200	> 200
O=C(O)C(O)C(O)C(=O)O (configuration not stated) [Tartaric acid]	5.84	5.89	5.79	5.79	5.9	5.82	5.17	200	> 200
CC(C)(C)C(O)(CCc1ccc(Cl)cc1)Cn1cncn1 (configuration not stated) [Tebuconazole]	5.91	5.93	5.86	5.81	5.26	5.21	4.07	50	144
CCc1ccc(C(=O)NN(C(=O)c2cc(C)cc(C)c2)C(C)(C)C)cc1 [Tebufenozide]	6.1	6.49	6.28	6.07	5.96	6.06	5.38	200	> 200
CCc1nn(C)c(C(=O)NCc2ccc(C(C)(C)C)cc2)c1Cl [Tebufenpyrad]	4.96	5.23	3.83	3.7	3.95	4.11	3.36	≤ 0.5	1.03
CCOP(=S)(Oc1cnc(C(C)(C)C)nc1)OC(C)C (configuration not stated) [Tebupirimfos]	6	6.01	5.89	5.76	4.5	3.66	3.56	50	46.5
CNC(=O)N(C)c1nnc(C(C)(C)C)s1 [Tebuthiuron]	5.83	5.93	5.89	5.93	5.95	5.92	5.44	200	129
